Assay [1] deals with T1, human glutathione-S-transferase α-1 (Homo sapiens, UniProt P08263).
T1 construct: HA (N); made in house; host or cells: Escherichia coli (pOXO4-α1 vector)
T1 sequence (P08263 1-222): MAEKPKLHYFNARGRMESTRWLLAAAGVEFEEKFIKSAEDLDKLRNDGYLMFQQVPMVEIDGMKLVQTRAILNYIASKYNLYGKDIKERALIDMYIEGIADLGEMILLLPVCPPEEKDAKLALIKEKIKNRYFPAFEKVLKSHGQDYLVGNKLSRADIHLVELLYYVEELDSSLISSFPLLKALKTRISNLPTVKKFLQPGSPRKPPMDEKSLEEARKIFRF
Kind of assay: Degradation of pre-inhibited GST-α-1 in cell lysates (Western blot). In kind it is biochemical. Conditions: for Degradation of GST-α-1 in cell lysates: protein pre-treated with inhibitor, lysates from reticulocytes, HeLa, Cos and NIH 3T3 cells. The procedure:
The gel was transferred onto a polyvinyldifluoride membrane in Towbin (3 g Tris/14.4 g glycine) buffer, 100V for 1.2 hours then 40V for 3 hours for 18% gels, and 100 V for 1.2 hours for 12% gels. The membrane was blocked with 3% non-fat milk in Tris buffered saline (100 mM Tris base, 500 mM NaCl, pH 7.6) for one hour, then directly added to a solution of anti HA-HRP conjugated antibody in 0.5% non-fat milk in Tris buffered saline with 0.05% tween-20 for 2 hours. Membrane was washed twice with Tris buffered saline with 0.05% Tween 20 for 10 minutes, then washed once with Tris buffered saline for 15 minutes. The residual buffer was removed then exposed to ECL Plus™ (GE healthcare) for 5 minutes. Membrane was visualized by exposure to film (HyBlot CL, Denville Scientific). For in cell degradation assays, the membrane was cut in half (at approximately 40 kiloDaltons) and the lower molecular weight portion was probed and visualized with anti-GAPDH-HRP, protocol same as for anti-HA except Tris buffered saline contained 150 mM NaCl, not 500 mM. The higher molecular weight portion of the membrane was probed and visualized with anti-HA-HRP.
Human glutathione-S-transferase α-1 bearing an N-terminal HA tag was recombinantly expressed in Escherichia coli using the pOXO4-α1 vector. This was purified using glutathione affinity chromatography (GST-Bind™, Novagen). Escherichia coli dihydrofolate reductase bearing an N-terminal (His)6 tag and a C-terminal HA tag was recombinantly expressed in Escherichia coli using a pET28a vector. This was purified using Ni-NTA resin (Qiagen).
The cells were then serum starved for 2 days in the case of Cos and HeLa cells and 1 day in the case of NIH3T3 cells. The cells were washed with phosphate buffered saline and then trypsinized. Cells were collected, and an equal volume of complete medium was added. Cells were pelleted by centrifugation and the supernatant was aspirated. The cell pellet was washed three times with phosphate buffered saline. Cell pellets were stored at −80° C. until required. Cells were thawed on ice and maintained at 4° C. until required for the assay. […] The cells were lysed in a Dounce homogenizer (10 strokes), and then centrifuged at 14000 rpm for 30 minutes. The clarified lysate was normalized to an optimized concentration of 1 mg/mL (Bradford assay, Biorad®, as per manufacturer's instructions, using immunoglobulin as a standard) with lysis buffer. A 10×ATP regeneration buffer was made consisting of the following 1 mg/mL creatine kinase (Roche Diagnostics®), 600 mM creatine phosphate, 100 mM ATP, 200 mM Tris pH 8.0, 600 mM MgCl2. This was incubated at 37° C. for 30 minutes prior to use. Assays were conducted in […] total volume [including 1×ATP regeneration buffer, and 120 ng of HA-tagged protein (1 μL) preinhibited with 100 μM ethacrynic acid-derived inhibitor, or 1 μM trimethoprim-derived inhibitor] in 250 μL PCR tubes. Prior to assay 50 μL Chill Out wax (Biorad®) was overlaid on the top of the vial. 15 μL aliquots were extracted and diluted into 6 μL of 5× reducing SDS PAGE loading buffer and immediately frozen by being placed into dry ice. These were stored at −80° C. until required. Samples were thawed at 100° C. and continued to be boiled for 5 minutes. The samples were then centrifuged at 14,000 rpm on a microcentrifuge for 30 minutes and loaded onto an 18% polyacrylamide SDS PAGE gel, and Western blotted as per Example 2.
Background: Immunoblotting shows a protein as a band on a membrane.

Assay [2] deals with T2, eDHFR-HA-GST-α1 (UniProt P08263+P0ABQ4).
T2 construct: expressed in transfected cells; host or cells: HeLa cells
T2 sequence (P0ABQ4+P08263 with tags, fused parts or gaps): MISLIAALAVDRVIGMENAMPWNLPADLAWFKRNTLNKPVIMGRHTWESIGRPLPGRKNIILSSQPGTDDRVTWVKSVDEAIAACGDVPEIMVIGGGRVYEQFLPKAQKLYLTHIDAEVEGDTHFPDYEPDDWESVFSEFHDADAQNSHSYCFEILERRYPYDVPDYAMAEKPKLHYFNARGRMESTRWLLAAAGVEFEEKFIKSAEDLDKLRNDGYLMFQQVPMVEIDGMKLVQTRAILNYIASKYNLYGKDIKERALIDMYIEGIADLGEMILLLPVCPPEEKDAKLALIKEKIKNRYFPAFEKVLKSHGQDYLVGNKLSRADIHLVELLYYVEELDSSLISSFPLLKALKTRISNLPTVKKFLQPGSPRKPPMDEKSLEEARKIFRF
Nature of the assay: Degradation of eDHFR-HA-GST-α1 ectopically expressed in HeLa cells. Type of assay: cell-based. The settings on record: for Degradation of eDHFR-HA-GST-α1: cycloheximide treated HeLa cells. The source says:
FIG. 5 depicts degradation of GST-α1-HA in HeLa cell lysates and eDHFR-HA-GST in HeLa cells.

The test system of assay [3] is endogenous GST-π. Kind of assay: Degradation of endogenous GST-π in whole cells (immunoblot). In kind it is cell-based. Conditions: two hours. The procedure:
FIG. 12 depicts degradation of endogenous GST-π. Cells were incubated with EA-Boc3Arg for 2 hours. Degradation was monitored by immuno-blotting with anti-GST antibodies. EA=right bar; EA-Boc3-Arg=left bar.
The ability of EA-Boc3Arg to degrade endogenous GST-π in the context of whole cells was also investigated. […] The Boc3Arg moiety can regulate endogenous protein levels in vivo.

Assay [4] has as its system proteasome. Nature of the assay: Effect of proteasome inhibitors on Boc3Arg-induced degradation (lysates and whole HeLa cells). The settings on record: GST-α-1 in cell lysates; eDHFR fusion proteins in HeLa cells.
For assay [5], the target named is eDHFR-HA-GFP (Escherichia coli, UniProt P0ABQ4). Conditions: transfected HeLa cells. The procedure:
FIG. 6 depicts degradation of eDHFR-HA in cell lysates and degradation of eDHFR fusion proteins in HeLa cells. (A) Degradation of eDHFR in HeLa cells lysates; (B) quantification of panel (A); (C) Global protein stability (GPS) assay. Cells co-express red fluorescent protein (RFP) and DHFR-HA-GFP from a bicistronic construct. Red and green fluorescence was measured by flow cytometry.
Protein degradation in whole cells was also assessed. eDHFR-HA-GFP was co-expressed with Discosoma sp. red fluorescent protein (RFP) in a bicistronic construct under control of a CMV promoter, with DHFR-HA-GFP translation occurring at the internal ribosome binding site. Thus a single mRNA is responsible for the production of both RFP and DHFR-HA-GFP, so that similar ratios of both proteins should be produced in all transfected cells. Changes in the relative intensities of red and green fluorescence are measured by flow cytometry, providing a facile and quantitative measure of the degradation of DHFR-HA-GFP in living cells and real time.
Cells were grown to 90% confluence in Dulbecco's Modified Minimal Essential Medium supplemented with 10% fetal bovine serum, 1×L-glutamine with no antibiotic in a 6 well plate. At this point the cells were serum starved, and then transfected using […] plasmid (expression driven by the cytomegalovirus promoter; gene coding for enhanced green fluorescent protein fused to the C-terminus of E. coli dihydrofolate reductase): 2 μL Transfectin™ (Biorad) per well. 48 hours after transfection, media was once again aspirated, and fresh serum free media was added. Cycloheximide (final concentration 100 μg/mL) was then added to the cells and after 5 minutes, 30 μM inhibitor was added. At each time point (45 minutes), media was aspirated, cells were trypsinized, centrifuged and washed three times with phosphate buffered saline. Cell pellets were flash frozen in dry ice, and then stored indefinitely at −80° C. The cells were thawed on ice, and then resuspended in lysis buffer (150 mM sucrose, 200 mM sodium phosphate, 43 mM MgCl2, pH 7.8, 0.1% triton X-100). Cells were lysed by two freeze/thaw cycles (−80° C. for 5 minutes, then 4° C. for 10 minutes). Lysate concentrations were normalized by dilution with lysis buffer such that they gave the same A595 when diluted into Bradford assay dye (Biorad).

Entries after “also recorded” stand apart in the source; their conditions may differ. Residues, ends and D or L forms follow the SMILES beside them. *: point of attachment. Cbz = O=C(OCc1ccccc1)*

Consider `C=C(CC)C(=O)c1ccc(OCC(=O)NCCCCCCNC(=O)C(CCCNC(=N)NS(=O)(=O)c2ccc(C)cc2)NOC(=O)Cc2ccccc2)c(Cl)c1Cl` (centres unmarked) [Compound 2, N-(6-(2-(2,3-Dichloro-4-(2-methylenebutanoyl)phenoxy)acetamido)hexyl)-2-(benzylcarbonyloxyamino)-5-(3-tosylguanidino)pentanamide], for which, in assay [1], the “Degradation of GST-α-1 in cell lysates” value is “functional degradation tag”.
Turning to `C=C(CC)C(=O)c1ccc(OCC(=O)O)c(Cl)c1Cl` [EA, ethacrynic acid, reference compound], in assay [2], the “Degradation of eDHFR-HA-GST-α1” value is “does not”. The “Degradation of GST-α-1 in cell lysates” value in assay [1] was “No degradation was observed”.
`C=C(CC)C(=O)c1ccc(OCC(=O)NCCCCCCNC(=O)C(CCCNC(=NC(=O)OC(C)(C)C)NC(=O)OC(C)(C)C)NC(=O)OC(C)(C)C)c(Cl)c1Cl` (centres unmarked) [EA-Boc3Arg, N-(6-(2-(2,3-Dichloro-4-(2-methylenebutanoyl)phenoxy)acetamido)hexyl)-5-(2,3-di-t-butoxycarbonylguanidino)-2-(t-butoxycarbonylamino)pentanamide]: the “Degradation of eDHFR-HA-GST-α1” value in assay [2] is “can cause degradation”. Moreover, the “depletion in the GST-π signal” value in assay [3] was 30%. Also, the “Degradation of GST-α-1 in cell lysates” value in assay [1] is on record as “Degradation was observed”; in assay [1] (listed as 1), “promotes the degradation”.
With `CC(C)(C)OC(=O)N=C(NCCCC(NC(=O)OC(C)(C)C)C(=O)NCCCCCCSc1ccc([N+](=O)[O-])c2nonc12)NC(=O)OC(C)(C)C` (centres unmarked) [Fur-Boc3Arg, 5-(2,3-Di-tert-butoxycarbonylguanidino)-2-(tert-butoxycarbonylamino)-N-(6-(7-nitrobenzo[c][1,2,5]oxadiazol-4-ylthio)hexyl)pentan amide], the “Degradation of Fur-Boc3Arg-modified GST-α-1” value in assay [1] (NIH 3T3 cell lysates) is “readily degraded; also recorded: induces the degradation”.
Regarding `CC(C)C[C@@H](C=O)NC(=O)[C@H](CC(C)C)NC(=O)[C@H](CC(C)C)NC(=O)OCc1ccccc1` [MG 132] (Cbz-Leu-Leu-Leu-aldehyde), in assay [4], the “Effect on Boc3Arg-induced degradation” value is given as “block; also recorded: prevent degradation”.
For `Cc1cc(C(=O)CN2CCCC2)c(C)n1-c1ccc(F)cc1` [PU1, reference compound], in assay [5], the “Effect on degradation of eDHFR-HA-GFP” value is listed as “slower”.
`CC(C)C[C@H](NC(=O)[C@H](Cc1ccccc1)NC(=O)c1cnccn1)B(O)O` [bortezomib]: the “Effect on degradation of eDHFR-HA-GST-α1 by EA-Boc3Arg” value in assay [2] (cycloheximide and non-cycloheximide treated HeLa cells) is “retards degradation”. Further, the “Effect on degradation of eDHFR-HA-GFP” value in assay [5] is reported as “slower”. Further, in assay [4], the “Effect on Boc3Arg-induced degradation” value was “block; also recorded: prevent degradation”.
Regarding `CC(=O)N[C@@H](CSC(=O)[C@]1([C@@H](O)C(C)C)NC(=O)[C@H](C)[C@@H]1O)C(=O)O` [lactacystin], in assay [4], the “Effect on Boc3Arg-induced degradation” value is “block”.

For the origin of these results see patent publication US9765019B2, “Small-molecule-targeted protein degradation” (Brandeis University, priority 2011, dated 2017).
